Laboratory results as given in BindingDB's records for doi:10.1016/j.ejmech.2020.113033 (Leiden University, 2021).

Experiments:
[1] = Displacement of [3H]dofetilide from human ERG stably expressed in HEK293 cell membranes assessed as unlabelled dofetilide IC50 at 10 uM measured after 60 mins by microbeta liquid scintillation counting method (Rvb = 9.1 to 11.7 nM)
[2] = Displacement of [3H]dofetilide from human ERG stably expressed in HEK293 cell membranes assessed as unlabelled dofetilide IC50 at 3 uM measured after 60 mins by microbeta liquid scintillation counting method (Rvb = 9.1 to 11.7 nM)
[3] = Displacement of [3H]dofetilide from human ERG stably expressed in HEK293 cell membranes assessed as unlabelled dofetilide IC50 at 1 uM measured after 60 mins by microbeta liquid scintillation counting method (Rvb = 9.1 to 11.7 nM)
[4] = Displacement of [3H]dofetilide from human ERG stably expressed in HEK293 cell membranes assessed as unlabelled dofetilide IC50 at 0.5 uM measured after 60 mins by microbeta liquid scintillation counting method (Rvb = 9.1 to 11.7 nM)

O=C(COc1ccc(C(=O)c2ccccc2Br)cc1)Nc1cccnc1
IC50 [1]: 0.036 µM

O=C(COc1ccc(C(=O)c2cc(Cl)ccc2Br)cc1)Nc1ccnc(F)c1
IC50 [1]: 0.018 µM

N#Cc1cc(NC(=O)COc2ccc(C(=O)c3cc(Cl)ccc3Br)cc2)ccc1F
IC50 [1]: 0.07 µM

CNC(=O)c1cccc(NC(=O)COc2ccc(C(=O)c3cc(Cl)ccc3Br)cc2)c1
IC50 [1]: 0.022 µM

O=C(COc1ccc(C(=O)c2cc(Cl)ccc2Br)cc1)Nc1cccc(C(=O)NCC2CC2)c1
IC50 [1]: 0.026 µM

O=C(COc1ccc(C(=O)c2cc(Cl)ccc2Br)cc1)Nc1cccnc1
IC50 [2]: 0.035 µM

Cc1cc(NC(=O)COc2ccc(C(=O)c3cc(Cl)ccc3Br)cc2)ccn1
IC50 [2]: 0.06 µM

N#Cc1cccc(NC(=O)COc2ccc(C(=O)c3cc(Cl)ccc3Br)cc2)c1F
IC50 [2]: 0.013 µM

O=C(COc1ccc(C(=O)c2cc(Cl)ccc2Br)cc1)Nc1cccc(C(=O)NC2CC2)c1
IC50 [2]: 0.011 µM

O=C(COc1ccc(C(=O)c2cc(Cl)ccc2Br)cc1)Nc1ccc(Cl)c(C(=O)NCC2CC2)c1
IC50 [2]: 0.018 µM

O=C(COc1ccc(C(=O)c2cc(Cl)ccc2Br)cc1)Nc1cncc(C(=O)NCC2CC2)c1
IC50 [3]: 0.02 µM

O=C(COc1ccc(C(=O)c2cc(Cl)ccc2Br)cc1)Nc1ccnc(C(=O)NCC2CC2)c1
IC50 [4]: 0.018 µM
